Results published in patent US8124056B2, “High throughput genetic screening of lipid and cholesterol processing using fluorescent compounds” (Trustees of the University of Pennsylvania, priority 2000, dated 2012).

How the values were obtained:
5 dpf zebrafish larvae = assay: Gall bladder fluorescence in 5 dpf zebrafish larvae soaked in fluorescent lipids; settings: 5 dpf larvae soaked in the lipid
Protocol: A. Bright-field image of a 5 dpf larva soaked in PED6 (3 μg/ml, 2 hr). B. Corresponding fluorescent image, with intestinal (arrow) and gall bladder (arrowhead) labeling. C. Larva soaked in BODIPY-C5-PC (0.2 μg/ml).
To determine whether these reagents could be used to study organ specific PLA2 activity, the quenched fluorescent lipids were administered to zebrafish larvae at 5 dpf, a developmental stage when the major larval organ systems function (FIG. 2).
First, to establish that PED6 is swallowed by the larvae, an unquenched fluorescent lipid was administered to 5 dpf larvae, and the appearance of labeled lipid in the pharynx and intestinal lumen before the gallbladder was noted (FIGS. 3C & 4). […] Dissected adult gall bladders were lysed in embryo medium (EM) (30 μl) containing BODIPY-FL-C5-PC (0.1 μg) to release bile. PLA2 activity was determined as described (1). Measurements were compared with activity of bile-depleted gallbladders. […] Fluorescent images were captured over 1 hr using a Zeiss Axiocam 2 mounted on a Leica MZFL-III.

mice = assay: Biliary fluorescence in mice given PED6 by gavage; format: in vivo, mouse; settings: PED6 1 μg by gavage, t=30 min
Protocol: FIG. 5. Lipid processing. […] C. Mouse digestive organs. D. Gall bladder fluorescence after processing (t=30 min) of PED6 (1 μg), administered by gavage. Symbols: gb, ball bladder; d, common bile duct; lv, liver. Scale bars, 1.0 mm (C and D), 200 μm (other images).

Row | Molecule | time to gall bladder fluorescence after ingesting the lipid (5 dpf zebrafish larvae) [min] | biliary (gall bladder) fluorescence after gavage (mice)
1 | nitrobenzoxadiazole cholesterol [NDB cholesterol] | ≤ 30 | 
2 | CCCCCCCCCCCCCCCC(=O)OC[C@H](COP(=O)(O)OCCNC(=O)CCCCCNc1ccc([N+](=O)[O-])cc1[N+](=O)[O-])OC(=O)CCCCC1=[N+]2C(=Cc3c(C)cc(C)n3[B-]2(F)F)C=C1 [PED6, N-((6-(2,4-dinitrophenyl)amino)hexanoyl)-1-palmitoyl-2-BODIPY-FL-pentanoyl-sn-glycero-3-phosphoethanolamine] | 15 to 20 | rapid appearance of biliary fluorescence
